# Measured values taken from patent EP0271829A2, “Delta-hydroxy-beta-lysine derivatives and their production” (Takeda Chemical Industries, Ltd., priority 1986, dated 1988).
# How the values were obtained:
# [1] = tested on: S. aureus 308A-1; assay: Antibacterial activity in mice, s.c. (ED50); type: in vivo; settings: Staphylococcus aureus, 308A1, sc
# Text: (§1) Thus obtained Compound (I) is useful as medicines, for example, antibiotics against certain types of gram-positive and gram-negative beacteria. [table] [table]
# [2] = tested on: S. aureus 308A-1; assay: Antibacterial activity against gram-positive bacteria (MIC on Tripticase Soy Agar); type: cell-based; settings: Staphylococcus aureus, 308A1, Medium: Tripticase Soy Agar, Inoculum size: 10^8 cfu/ml
# Text: as §1
MIC [2] [µg/mL],Structure (SMILES),ED50 [1] [mg/kg]
> 100,C/C=C\C=C\C(=O)NCC(O)CC(CC(=O)NCCC(=N)N)NC (stereo not shown) [Compound 80],9.64
> 100,"CN(CC(=O)O)NC(=O)C[C@H](N)C[C@@H](O)CN [Negamycin, 2-(3R,5R)-3,6-diamino-5-hydroxyhexanoyl-1-methylhydrazinoacetic acid, reference compound]",38.6
> 100,C/C=C\C=C\C(=O)NCC(O)CC(CC(=O)NCCC(=N)N)NC(=O)C(N)CCCCC(=O)OC (stereo not shown) [Compound 86b],25
100,C=C/C=C/C(=O)NCC(O)CC(N)CC(=O)NCCC(=N)N (stereo not shown) [Compound 38b],6.25
> 100,C/C=C\C=C\C(=O)NCC(O)CC(CC(=O)NCCC(=N)N)NCC (stereo not shown) [Compound 82],25
